In patent US7820201B2, “System for manufacturing controlled release dosage forms, such as zero-order release profile dosage form manufactured by three-dimensional printing” (Massachusetts Institute of Technology, priority 2001, dated 2010):
Like-named read-outs stand apart in the source and are kept apart here.

Details: for ko, best fit rate constant for equation 9: Co 280 mgAPI/cc, 3-D release, simulated intestinal fluid pH 7.4, 37° C.
Text: The concentration C0 refers to the amount of API per unit volume in the dosage form after compression.
Each of the API release curves in FIG. 16 was fit to Equation 9 by performing a least-squares fit between the empirical data and model. This was done to determine the relevance of the model, and to determine rate constants for the powder/API systems for later use. […] For this purpose, the rate constants in the two different directions were assumed to be equal.
The erosion rate constants are given in units of mg/hr cm^2 where mg is mg of API released into the dissolution fluid. R^2 is a statistical measure of correlation, with a value of 1 indicating perfect correlation.

O=C(O)Cc1ccccc1Nc1c(Cl)cccc1Cl [diclofenac sodium]
linear erosion rate constant delta r/delta t (70% Lactose: 30% HPMC conventional tablets): 0.341 mm/hr
ko, best fit rate constant for equation 9 (Lactose:HPMC 60:40, 100 mg API): 6.092 mg/hr · cm^2
ko, best fit rate constant for equation 9 (Lactose:HPMC 70:30, 100 mg API): 9.540 mg/hr · cm^2
ko, best fit rate constant for equation 9 (Lactose:HPMC 80:20, 100 mg API): 22.238 mg/hr · cm^2
